For this assay, the target named is T1, SHP2 protein (Homo sapiens, UniProt Q06124).
T1 sequence (Q06124 1-593): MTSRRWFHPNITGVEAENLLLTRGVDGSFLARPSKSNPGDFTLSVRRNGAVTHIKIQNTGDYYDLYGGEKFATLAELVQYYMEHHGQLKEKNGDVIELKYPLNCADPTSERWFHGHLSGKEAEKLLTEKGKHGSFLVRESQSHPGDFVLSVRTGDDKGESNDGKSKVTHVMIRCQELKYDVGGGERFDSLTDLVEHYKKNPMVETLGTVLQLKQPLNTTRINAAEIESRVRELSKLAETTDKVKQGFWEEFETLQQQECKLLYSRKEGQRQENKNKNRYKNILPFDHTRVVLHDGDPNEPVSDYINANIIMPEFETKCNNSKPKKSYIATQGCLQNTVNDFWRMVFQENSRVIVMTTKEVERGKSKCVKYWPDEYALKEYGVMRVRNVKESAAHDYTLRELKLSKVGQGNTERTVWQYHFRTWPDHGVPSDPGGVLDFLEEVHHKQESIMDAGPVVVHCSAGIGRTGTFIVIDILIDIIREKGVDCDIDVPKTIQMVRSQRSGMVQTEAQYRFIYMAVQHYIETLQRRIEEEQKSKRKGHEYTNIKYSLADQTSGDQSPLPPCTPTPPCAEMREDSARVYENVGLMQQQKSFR
As to the kind of experiment: Measurement of SHP2 protein degradation in MV-4-11 cells (western blotting). The class given is cell-based. Set-up: endogenous in cells; host or cells: MV-4-11. The note with it: MV-4-11 cells, 24 hours. An outline of the steps:
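SHP2 protein levels were assessed by western blotting in MV-4-11 cells after a 24 hour compound treatment. Lysates were sonicated, centrifuged, normalized by BCA assay at 562 nm, run on Bis-tris 4-12% gels, transferred to NC membrane, probed with anti-SHPTP2 (70 kDa) and anti-GAPDH (37 kDa) antibodies, and detected on LI-COR Odyssey.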
For orientation: Immunoblotting shows a protein as a band on a membrane.

On to `Cc1ncsc1-c1ccc(CNC(=O)[C@@H]2C[C@@H](O)CN2C(=O)[C@@H](NC(=O)C2(F)CC2)C(C)(C)C)c(OCC2CCN(C(=O)CC(=O)Nc3cccc(Sc4cnc(N5CCC(C)(N)CC5)cn4)c3Cl)CC2)c1` [Example 29, (2S,4R)—N-(2-((1-(3-((3-((5-(4-amino-4-methylpiperidin-1-yl)pyrazin-2-yl)thio)-2-chlorophenyl)amino)-3-oxopropanoyl)piperidin-4-yl)methoxy)-4-(4-methylthiazol-5-yl)benzyl)-1-((S)-2-(1-fluorocyclopropane-1-carboxamido)-3,3-dimethylbutanoyl)-4-hydroxypyrrolidine-2-carboxamide], for which the “SHP2 degradation (%) 10 nM” value was found to be 84% and the “SHP2 degradation (%) 100 nM” value was determined as 95.5%.

As for `Cc1ncsc1-c1ccc(CNC(=O)[C@@H]2C[C@@H](O)CN2C(=O)[C@@H](NC(=O)C2(F)CC2)C(C)(C)C)c(OCCN2CCN(CC(=O)Nc3cccc(Sc4cnc(N5CCC(C)(CN)CC5)cn4)c3Cl)C(=O)C2)c1` [Example 76, (2S,4R)—N-(2-(2-(4-(2-((3-((5-(4-(aminomethyl)-4-methylpiperidin-1-yl)pyrazin-2-yl)thio)-2-chlorophenyl)amino)-2-oxoethyl)-3-oxopiperazin-1-yl)ethoxy)-4-(4-methylthiazol-5-yl)benzyl)-1-((S)-2-(1-fluorocyclopropane-1-carboxamido)-3,3-dimethylbutanoyl)-4-hydroxypyrrolidine-2-carboxamide], the “SHP2 degradation (%) 10 nM” value was 94.2% and the “SHP2 degradation (%) 100 nM” value worked out at 99.5%.

As for `Cc1ncsc1-c1ccc(CNC(=O)[C@@H]2C[C@@H](O)CN2C(=O)[C@@H](NC(=O)C2(F)CC2)C(C)(C)C)c(OCCCC2CCN(C(=O)CC(=O)Nc3cccc(Sc4ncc(N5CCC(C)(CN)CC5)nc4N)c3Cl)CC2)c1` [Example 42, (2S,4R)—N-(2-(3-(1-(3-((3-((3-amino-5-(4-(aminomethyl)-4-methylpiperidin-1-yl)pyrazin-2-yl)thio)-2-chlorophenyl)amino)-3-oxopropanoyl)piperidin-4-yl)propoxy)-4-(4-methylthiazol-5-yl)benzyl)-1-((S)-2-(1-fluorocyclopropane-1-carboxamido)-3,3-dimethylbutanoyl)-4-hydroxypyrrolidine-2-carboxamide], the “SHP2 degradation (%) 10 nM” value stood at 73.5% and the “SHP2 degradation (%) 100 nM” value is on record as 95.0%.

On to `Cc1ncsc1-c1ccc(CNC(=O)[C@@H]2C[C@@H](O)CN2C(=O)[C@@H](NC(=O)C2(F)CC2)C(C)(C)C)c(OCCN2CCN(C(=O)CC(=O)Nc3cccc(Sc4cnc(N5CCC(C)(N)CC5)cn4)c3Cl)CC2)c1` [Example 53, (2S,4R)—N-(2-(2-(4-(3-((3-((5-(4-amino-4-methylpiperidin-1-yl)pyrazin-2-yl)thio)-2-chlorophenyl)amino)-3-oxopropanoyl)piperazin-1-yl)ethoxy)-4-(4-methylthiazol-5-yl)benzyl)-1-((S)-2-(1-fluorocyclopropane-1-carboxamido)-3,3-dimethylbutanoyl)-4-hydroxypyrrolidine-2-carboxamide], for which the “SHP2 degradation (%) 10 nM” value is listed as 83.9% and the “SHP2 degradation (%) 100 nM” value is 97.8%.

As to `Cc1ncsc1-c1ccc(CNC(=O)[C@@H]2C[C@@H](O)CN2C(=O)[C@@H](NC(=O)C2(F)CC2)C(C)(C)C)c(OCCN2CCN(c3ncc(C(=O)Nc4cccc(Sc5cnc(N6CCC(C)(CN)CC6)cn5)c4Cl)cn3)CC2)c1` [Example 84, N-(3-((5-(4-(aminomethyl)-4-methylpiperidin-1-yl)pyrazin-2-yl)thio)-2-chlorophenyl)-2-(4-(2-(2-(((2S,4R)-1-((S)-2-(1-fluorocyclopropane-1-carboxamido)-3,3-dimethylbutanoyl)-4-hydroxypyrrolidine-2-carboxamido)methyl)-5-(4-methylthiazol-5-yl)phenoxy)ethyl)piperazin-1-yl)pyrimidine-5-carboxamide], the “SHP2 degradation (%) 10 nM” value is recorded as 48.7% and the “SHP2 degradation (%) 100 nM” value was determined as 97.1%.

As for `CC(=O)N[C@H](C(=O)N1C[C@H](O)C[C@H]1C(=O)NCc1ccc(-c2scnc2C)cc1OCCCC1CCN(C(=O)CC(=O)Nc2cccc(Sc3cnc(N4CCC(C)(CN)CC4)cn3)c2Cl)CC1)C(C)(C)C` [Example 43, (2S,4R)-1-((S)-2-acetamido-3,3-dimethylbutanoyl)-N-(2-(3-(1-(3-((3-((5-(4-(aminomethyl)-4-methylpiperidin-1-yl)pyrazin-2-yl)thio)-2-chlorophenyl)amino)-3-oxopropanoyl)piperidin-4-yl)propoxy)-4-(4-methylthiazol-5-yl)benzyl)-4-hydroxypyrrolidine-2-carboxamide], the “SHP2 degradation (%) 10 nM” value was 80.0% and the “SHP2 degradation (%) 100 nM” value amounted to 96.5%.

On to `Cc1ncsc1-c1ccc(CNC(=O)[C@@H]2C[C@@H](O)CN2C(=O)[C@@H](NC(=O)C2(F)CC2)C(C)(C)C)c(OCCCN2CCC(O)(CC(=O)Nc3cccc(Sc4cnc(N5CCC(C)(CN)CC5)cn4)c3Cl)CC2)c1` [Example 20], for which the “SHP2 degradation (%) 10 nM” value amounted to 54.9% and the “SHP2 degradation (%) 100 nM” value is on record as 99.0%.

Consider `Cc1ncsc1-c1ccc(CNC(=O)[C@@H]2C[C@@H](O)CN2C(=O)[C@@H](NC(=O)C2(F)CC2)C(C)(C)C)c(OCCCCN2CCN(CC(=O)Nc3cccc(Sc4cnc(N5CCC(C)(CN)CC5)cn4)c3Cl)C(=O)C2)c1` [Example 78, (2S,4R)—N-(2-(4-(4-(2-((3-((5-(4-(aminomethyl)-4-methylpiperidin-1-yl)pyrazin-2-yl)thio)-2-chlorophenyl)amino)-2-oxoethyl)-3-oxopiperazin-1-yl)butoxy)-4-(4-methylthiazol-5-yl)benzyl)-1-((S)-2-(1-fluorocyclopropane-1-carboxamido)-3,3-dimethylbutanoyl)-4-hydroxypyrrolidine-2-carboxamide], for which the “SHP2 degradation (%) 10 nM” value is 86.6% and the “SHP2 degradation (%) 100 nM” value worked out at 99.5%.

For `Cc1ncsc1-c1ccc(CNC(=O)[C@@H]2C[C@@H](O)CN2C(=O)[C@@H](NC(=O)C2(F)CC2)C(C)(C)C)c(OCCCC2CCN(CCC(=O)Nc3cccc(Sc4cnc(N5CCC(C)(CN)CC5)cn4)c3Cl)CC2)c1` [Example 75, (2S,4R)—N-(2-(3-(1-(3-((3-((5-(4-(aminomethyl)-4-methylpiperidin-1-yl)pyrazin-2-yl)thio)-2-chlorophenyl)amino)-3-oxopropyl)piperidin-4-yl)propoxy)-4-(4-methylthiazol-5-yl)benzyl)-1-((S)-2-(1-fluorocyclopropane-1-carboxamido)-3,3-dimethylbutanoyl)-4-hydroxypyrrolidine-2-carboxamide], the “SHP2 degradation (%) 10 nM” value amounted to 19.5%, the “SHP2 degradation (%) 100 nM” value stood at 75.5% and the “SHP2 degradation (%) 1000 nM” value came out at 93.5%.

On to `Cc1ncsc1-c1ccc(CNC(=O)[C@@H]2C[C@@H](O)CN2C(=O)[C@@H](NC(=O)C2(F)CC2)C(C)(C)C)c(OCCCN2CCN(C(=O)CC(=O)Nc3cccc(Sc4cnc(N5CCC(C)(CN)CC5)cn4)c3Cl)[C@@H](C)C2)c1` [Example 64, (2S,4R)—N-(2-(3-((S)-4-(3-((3-((5-(4-(aminomethyl)-4-methylpiperidin-1-yl)pyrazin-2-yl)thio)-2-chlorophenyl)amino)-3-oxopropanoyl)-3-methylpiperazin-1-yl)propoxy)-4-(4-methylthiazol-5-yl)benzyl)-1-((S)-2-(1-fluorocyclopropane-1-carboxamido)-3,3-dimethylbutanoyl)-4-hydroxypyrrolidine-2-carboxamide], for which the “SHP2 degradation (%) 10 nM” value came out at 45.9% and the “SHP2 degradation (%) 100 nM” value is recorded as 96.6%.

For the molecule `Cc1ncsc1-c1ccc(CNC(=O)[C@@H]2C[C@@H](O)CN2C(=O)[C@@H](NC(=O)C2(F)CC2)C(C)(C)C)c(OCCC2CCN(C(=O)C(=O)Nc3cccc(Sc4cnc(N5CCC(C)(CN)CC5)cn4)c3Cl)CC2)c1` [Example 27, (2S,4R)—N-(2-(2-(1-(2-((3-((5-(4-(aminomethyl)-4-methylpiperidin-1-yl)pyrazin-2-yl)thio)-2-chlorophenyl)amino)-2-oxoacetyl)piperidin-4-yl)ethoxy)-4-(4-methylthiazol-5-yl)benzyl)-1-((S)-2-(1-fluorocyclopropane-1-carboxamido)-3,3-dimethylbutanoyl)-4-hydroxypyrrolidine-2-carboxamide], the “SHP2 degradation (%) 10 nM” value is listed as 23.5%, the “SHP2 degradation (%) 100 nM” value was determined as 72% and the “SHP2 degradation (%) 1000 nM” value was 91.5%.

With `Cc1ncsc1-c1ccc(CNC(=O)[C@@H]2C[C@@H](O)CN2C(=O)[C@@H](NC(=O)C2(F)CC2)C(C)(C)C)c(OCCN2CCN(c3nccc(C(=O)Nc4cccc(Sc5cnc(N6CCC(C)(CN)CC6)cn5)c4Cl)n3)CC2)c1` [Example 86, N-(3-((5-(4-(aminomethyl)-4-methylpiperidin-1-yl)pyrazin-2-yl)thio)-2-chlorophenyl)-2-(4-(2-(2-(((2S,4R)-1-((S)-2-(1-fluorocyclopropane-1-carboxamido)-3,3-dimethylbutanoyl)-4-hydroxypyrrolidine-2-carboxamido)methyl)-5-(4-methylthiazol-5-yl)phenoxy)ethyl)piperazin-1-yl)pyrimidine-4-carboxamide], the “SHP2 degradation (%) 10 nM” value is on record as −29.2% and the “SHP2 degradation (%) 100 nM” value worked out at 23.8%.

The values above are taken from patent US20250230154A1, “COMPOUND HAVING SHP2 PROTEIN DEGRADING ACTIVITY, AND MEDICAL USES THEREOF” (UBIX THERAPEUTICS, INC., priority 2021, published 2025).
